Assay results reported in US12077503B2, “Substituted cyclic amides and their use as herbicides” (FMC CORPORATION, priority 2015, dated 2024).

How the values were obtained:
Format in all cases: in vivo
Kochia (Kochia scoparia) [1] = experiment: Test A preemergence; conditions: Bassia scoparia, pre-emergence, 240 h, 0 to 100 scale where 0 is no effect and 100 is complete control, read-out: Kochia plant response rating; for pest or weed control at 31 g/ha: 31 g ai/ha, Preemergence; for pest or weed control at 125 g/ha: 125 g ai/ha, preemergence, visual injury rating, approximately 10 d
Outline: (§1)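 In a loam soil and sand blend, planted seeds got a preemergence directed soil spray, and young plants at the one- to two-leaf stage, 2–10 cm high, got a postemergence application; ~10 d greenhouse hold; injury rated visually, 0 = none, 100 = complete control.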

[2] = system: ragweed (common ragweed, Ambrosia elatior); experiment: Test A preemergence; conditions: Ambrosia artemisiifolia, pre-emergence, 240 h, 0 to 100 scale where 0 is no effect and 100 is complete control, read-out: Ragweed plant response rating; for pest or weed control at 31 g/ha: 31 g ai/ha, Preemergence; for pest or weed control at 125 g/ha: 125 g ai/ha, preemergence, visual injury rating, approximately 10 d
Outline: as §1

[3] = system: pigweed (Amaranthus retroflexus); experiment: Test A preemergence; conditions: Amaranthus retroflexus, pre-emergence, 240 h, 0 to 100 scale where 0 is no effect and 100 is complete control, read-out: Pigweed plant response rating; for pest or weed control at 31 g/ha: 31 g ai/ha, Preemergence; for pest or weed control at 125 g/ha: 125 g ai/ha, preemergence, visual injury rating, approximately 10 d
[4] = system: ryegrass, Italian (Italian ryegrass, Lolium multiflorum); experiment: Test A preemergence; conditions: Lolium multiflorum, pre-emergence, 240 h, 0 to 100 scale where 0 is no effect and 100 is complete control, read-out: Ryegrass, Italian plant response rating; for pest or weed control at 31 g/ha: 31 g ai/ha, Preemergence; for pest or weed control at 125 g/ha: 125 g ai/ha, preemergence, visual injury rating, approximately 10 d
Outline: as §1

[5] = system: giant foxtail (Setaria faberii); experiment: Test A preemergence; conditions: Setaria faberi, pre-emergence, 240 h, 0 to 100 scale where 0 is no effect and 100 is complete control, read-out: Foxtail, Giant plant response rating; for pest or weed control at 31 g/ha: 31 g ai/ha, Preemergence; for pest or weed control at 125 g/ha: 125 g ai/ha, preemergence, visual injury rating, approximately 10 d
Outline: as §1

[6] = system: barnyardgrass (Echinochloa crus-galli); experiment: Test A preemergence; conditions: Echinochloa crus-galli, pre-emergence, 240 h, 0 to 100 scale where 0 is no effect and 100 is complete control, read-out: Barnyardgrass plant response rating; for pest or weed control at 31 g/ha: 31 g ai/ha, Preemergence; for pest or weed control at 125 g/ha: 125 g ai/ha, preemergence, visual injury rating, approximately 10 d
Outline: as §1

rice (Oryra sativa) = experiment: Test B flooded paddy test; conditions: Oryza sativa, 250 g ai/ha, Flood; 0 to 100 scale where 0 is no effect and 100 is complete control; read-out: Rice plant response rating
Outline: (§2)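 Plants at 2-leaf stage flooded to 3 cm above soil, with compounds applied directly to paddy water and that depth maintained. Plants kept in greenhouse 13–15 d. Visual rating versus controls on a 0 (no effect) to 100 (complete control) scale.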

[7] = system: sedge, umbrella (small-flower umbrella sedge, Cyperus difformis); experiment: Test B flooded paddy test; conditions: Cyperus difformis, 250 g ai/ha, Flood; 0 to 100 scale where 0 is no effect and 100 is complete control; read-out: Sedge, Umbrella plant response rating
Outline: as §2

[8] = system: ducksalad (Heteranthera limosa); experiment: Test B flooded paddy test; conditions: Heteranthera limosa, 250 g ai/ha, Flood; 0 to 100 scale where 0 is no effect and 100 is complete control; read-out: Ducksalad plant response rating
Outline: as §2

[9] = system: barnyardgrass (Echinochloa crus-galli); experiment: Test B flooded paddy test; conditions: Echinochloa crus-galli, 250 g ai/ha, Flood; 0 to 100 scale where 0 is no effect and 100 is complete control; read-out: Barnyardgrass plant response rating
Outline: as §2

Kochia (Kochia scoparia) [10] = experiment: Test A postemergence; conditions: Bassia scoparia, post-emergence, 240 h, Postemergence, read-out: Kochia plant response rating (0 to 100 scale); for pest or weed control at 125 g/ha: 125 g ai/ha, visual rating about 10 d after treatment; for pest or weed control at 31 g/ha: 31 g ai/ha, 0 is no effect, 100 is complete control
Outline: as §1

[11] = system: ragweed (common ragweed, Ambrosia elatior); experiment: Test A postemergence; conditions: Ambrosia artemisiifolia, post-emergence, 240 h, Postemergence, read-out: Ragweed plant response rating (0 to 100 scale); for pest or weed control at 125 g/ha: 125 g ai/ha, visual rating about 10 d after treatment; for pest or weed control at 31 g/ha: 31 g ai/ha, 0 is no effect, 100 is complete control
Outline: as §1

[12] = system: blackgrass (Alopecurus myosuroides); experiment: Test A postemergence; conditions: Alopecurus myosuroides, post-emergence, 240 h, Postemergence, read-out: Blackgrass plant response rating (0 to 100 scale); for pest or weed control at 125 g/ha: 125 g ai/ha, visual rating about 10 d after treatment; for pest or weed control at 31 g/ha: 31 g ai/ha, 0 is no effect, 100 is complete control
Outline: as §1

[13] = system: pigweed (Amaranthus retroflexus); experiment: Test A postemergence; conditions: Amaranthus retroflexus, post-emergence, 240 h, Postemergence, read-out: Pigweed plant response rating (0 to 100 scale); for pest or weed control at 125 g/ha: 125 g ai/ha, visual rating about 10 d after treatment; for pest or weed control at 31 g/ha: 31 g ai/ha, 0 is no effect, 100 is complete control
Outline: as §1

[14] = system: ryegrass, Italian (Italian ryegrass, Lolium multiflorum); experiment: Test A postemergence; conditions: Lolium multiflorum, post-emergence, 240 h, Postemergence, read-out: Ryegrass, Italian plant response rating (0 to 100 scale); for pest or weed control at 125 g/ha: 125 g ai/ha, visual rating about 10 d after treatment; for pest or weed control at 31 g/ha: 31 g ai/ha, 0 is no effect, 100 is complete control
Outline: as §1

[15] = system: Galium (catchweed bedstraw, Galium aparine); experiment: Test A postemergence; conditions: Galium, post-emergence, 240 h, Postemergence, read-out: Galium plant response rating (0 to 100 scale); for pest or weed control at 125 g/ha: 125 g ai/ha, visual rating about 10 d after treatment; for pest or weed control at 31 g/ha: 31 g ai/ha, 0 is no effect, 100 is complete control
Outline: as §1

[16] = system: giant foxtail (Setaria faberii); experiment: Test A postemergence; conditions: Setaria faberi, post-emergence, 240 h, Postemergence, read-out: Foxtail, Giant plant response rating (0 to 100 scale); for pest or weed control at 125 g/ha: 125 g ai/ha, visual rating about 10 d after treatment; for pest or weed control at 31 g/ha: 31 g ai/ha, 0 is no effect, 100 is complete control
Outline: as §1

corn (Zea mays) = experiment: Test A postemergence; conditions: Zea mays, post-emergence, 240 h, Postemergence, read-out: Corn plant response rating (0 to 100 scale); for plant injury at 125 g/ha: 125 g ai/ha, visual rating about 10 d after treatment; for plant injury at 31 g/ha: 31 g ai/ha, 0 is no effect, 100 is complete control
Outline: as §1

[17] = system: wheat (Triticum aestivum); experiment: Test A postemergence; conditions: Triticum aestivum, post-emergence, 240 h, Postemergence, read-out: Wheat plant response rating (0 to 100 scale); for plant injury at 125 g/ha: 125 g ai/ha, visual rating about 10 d after treatment; for plant injury at 31 g/ha: 31 g ai/ha, 0 is no effect, 100 is complete control
Outline: as §1

[18] = system: barnyardgrass (Echinochloa crus-galli); experiment: Test A postemergence; conditions: Echinochloa crus-galli, post-emergence, 240 h, Postemergence; for pest or weed control at 125 g/ha: 125 g ai/ha, visual rating about 10 d after treatment, read-out: Barnyardgrass plant response rating (0 to 100 scale, 0 no effect, 100 complete control); for pest or weed control at 31 g/ha: 31 g ai/ha, 0 is no effect, 100 is complete control, read-out: Barnyardgrass plant response rating (0 to 100 scale)
Outline: as §1

| Compound | pest or weed control at 31 g/ha (Kochia (Kochia scoparia) [1]) [%] | pest or weed control at 125 g/ha (Kochia (Kochia scoparia) [1]) [%] | pest or weed control at 31 g/ha [2] [%] | pest or weed control at 125 g/ha [2] [%] | pest or weed control at 31 g/ha [3] [%] | pest or weed control at 125 g/ha [3] [%] | pest or weed control at 31 g/ha [4] [%] | pest or weed control at 125 g/ha [4] [%] | pest or weed control at 31 g/ha [5] [%] | pest or weed control at 125 g/ha [5] [%] | pest or weed control at 31 g/ha [6] [%] | pest or weed control at 125 g/ha [6] [%] | pest or weed control at 250 g/ha (rice (Oryra sativa)) [%] | pest or weed control at 250 g/ha [7] [%] | pest or weed control at 250 g/ha [8] [%] | pest or weed control at 250 g/ha [9] [%] | pest or weed control at 125 g/ha (Kochia (Kochia scoparia) [10]) [%] | pest or weed control at 31 g/ha (Kochia (Kochia scoparia) [10]) [%] | pest or weed control at 125 g/ha [11] [%] | pest or weed control at 31 g/ha [11] [%] | other results |
| --- | --- | --- | --- | --- | --- | --- | --- | --- | --- | --- | --- | --- | --- | --- | --- | --- | --- | --- | --- | --- | --- |
| CN1C[C@H](c2cccc(C#N)c2)[C@@H](C(=O)Nc2cccc(F)c2F)C1=O [Compound 1286] | 0 | 60 | 0 | 50 | 0 | 20 | 20 | 60 | 100 | 100 | 100 | 100 | 0 | 0 | 95 | 70 | 30 | 0 | 0 | 0 | pest or weed control at 125 g/ha [12]: 40%; pest or weed control at 31 g/ha [12]: 0%; pest or weed control at 125 g/ha [13]: 20%; pest or weed control at 31 g/ha [13]: 0%; pest or weed control at 125 g/ha [14]: 0%; pest or weed control at 31 g/ha [14]: 0%; pest or weed control at 125 g/ha [15]: 40%; pest or weed control at 31 g/ha [15]: 20%; pest or weed control at 125 g/ha [16]: 90%; pest or weed control at 31 g/ha [16]: 70%; plant injury at 125 g/ha (corn (Zea mays)): 80%; plant injury at 31 g/ha (corn (Zea mays)): 20%; plant injury at 125 g/ha [17]: 0%; plant injury at 31 g/ha [17]: 0%; pest or weed control at 125 g/ha [18]: 90%; pest or weed control at 31 g/ha [18]: 90% |
| Cc1ccc([C@H]2CN(C)C(=O)[C@@H]2C(=O)Nc2ccccc2)cc1 [Compound 1291] | 0 | 40 | 0 | 0 | 0 | 100 | 0 | 20 | 100 | 100 | 100 | 100 | 30 | 0 | 100 | 90 | 0 | 0 | 0 | 0 | pest or weed control at 125 g/ha [12]: 0%; pest or weed control at 31 g/ha [12]: 0%; pest or weed control at 125 g/ha [13]: 0%; pest or weed control at 31 g/ha [13]: 0%; pest or weed control at 125 g/ha [14]: 0%; pest or weed control at 31 g/ha [14]: 0%; pest or weed control at 125 g/ha [15]: 20%; pest or weed control at 31 g/ha [15]: 0%; pest or weed control at 125 g/ha [16]: 80%; pest or weed control at 31 g/ha [16]: 70%; plant injury at 125 g/ha (corn (Zea mays)): 30%; plant injury at 31 g/ha (corn (Zea mays)): 0%; plant injury at 125 g/ha [17]: 30%; plant injury at 31 g/ha [17]: 0%; pest or weed control at 125 g/ha [18]: 90%; pest or weed control at 31 g/ha [18]: 70% |
